Test results from US10023652B2, “Method of targeting glycoproteins to treat cancer” (Board of Regents of the University of Nebraska, priority 2013, dated 2018).

Tested on: phosphorylation of Akt (S473)
Experiment: Treatment of Capan-1 Cosmc KO cells with HER2 inhibitor, Akt phosphorylation by immunoblotting
Format: cell-based, human
Conditions: 24 h, FIG. 9B

With `COCC(=O)NC/C=C/c1ccc2ncnc(Nc3ccc(Oc4ccc(C)nc4)c(C)c3)c2c1` [CP724714] as the compound, how does the “phosphorylation of Akt” value read?
Its value is “decreases the phosphorylation of Akt in a dose dependent manner”.
